Assay results taken from publication PMC11667234, “CD63 as novel target for nanoemulsion-based ^19F MRI imaging and drug delivery to activated cardiac fibroblasts” (Theranostics, 2025).
“Also recorded” adds a separate entry of the source.

Columns and labels:
[1] = test system: rat epicardial stromal cells (EpiSC); settings: cultured EpiSC from infarcted rat hearts; cited from earlier work
Description: Using bacterial phage display screening, our previous work identified five small peptides that bound to cultured EpiSC, isolated from infarcted rat hearts, with high affinity. […] In the present study, we first aimed to assess the potential of EP9 for in vivo imaging of epicardial and myocardial stromal cells (fibroblasts) in the post-MI mouse heart. To this end, we coupled EP9 to a ^19F-containing PFC-NE (EP9-PFC-NE), designed for the in vivo labeling of cardiac cells (Figure 1). At 5 days post-MI (50 min ischemia/reperfusion), 150 µL of EP9-PFC-NE were injected into the tail vein of infarcted mice. PFC-NE coupl ... || page 3: Figure S2. Binding of peptide EP9 in comparison to control peptides to mouse cardiac fibroblasts and human monocytes (THP1). The binding of peptide EP9 in comparison to EP9-derived scrambled and mutated (MUT) peptides (see Table S1), as well as a negative control peptide (Negative) with low affinity to cardiac stromal cells (as previously assessed: peptide EP50), was evaluated by flow cytometry after 30 min of incubation in vitro. 6-FAM fluorescence signal of the peptides at the surface of mouse cardiac fibroblasts isolated from hearts 5 days after MI (n = 3 hearts) and human mono ...

mouse EpiSC = assay: Peptide binding by flow cytometry (6-FAM fluorescence); format: cell-based; settings: EpiSC from hearts 5 days after MI, 5 µg peptide, 30 min, 37°C, 6-FAM MFI, n = 3 hearts
Procedure: (§1) To study the in vitro binding of 6-FAM-conjugated peptides (see above) we used the following cells: mouse EpiSC and cardiac fibroblasts prepared as described above, normal human dermal fibroblasts (NHDF) from juvenile foreskin, and human monocytes (THP-1). In addition, we used primary human cardiac fibroblasts which were prepared by outgrowth culture technique from a heart sample of a patient with terminal heart failure undergoing orthotopic heart transplant surgery, kindly provided by the Cardiac Surgery Department of the University Hospital Düsseldorf, Düsseldorf, Germany. A tissue sample weighing about ~5 g was removed from the failing heart's apex and placed in cooled BIOPS buffer to be divided into tiny pieces for subsequent culture to allow cell outgrowth in a 6‑well plate with DMEM (low glucose), 20% FBS, and 1% penicillin-streptomycin. The medium was replaced every 2 days and biopsy pieces were discarded after 5 days. After 14 days, cells reached a confluence of about 80% and were then passed to T75 cell culture flasks.
(§2) The binding assay was performed as follows: Cells were detached with PBS-EDTA (5 mM) for 10 min at 37°C and centrifuged at 500 × g for 5 min. Afterwards, 5 µg of synthesized peptide (see above) was added to 800 µL (0.5 x 10^6 cells) of the cell suspension and incubated for 30 min at 37°C. To control the specific targeting of the EP9 peptide, scrambled and mutated peptides were used as negative controls. Subsequently, 200 µL of the cell suspension were washed in 2 mL MACS buffer (2 % FBS and 1 mM EDTA in PBS) and centrifuged at 500 × g for 5 min and the supernatant was discarded. One additional washing step was performed by resuspending the cell pellet in 200 µL of MACS buffer and centrifugation at 500 × g for 5 min. After discarding the supernatant, the cell pellet was resuspended in 200 µL of 4′6-diamidino-2-phenylindole dichlorhydrate (DAPI) (Merck, Darmstadt, Germany) (1 µg/mL) to allow discrimination of dead cells. Flow cytometric analysis was performed using a BD FACS Canto II flow cytometer (BD Biosciences, Franklin Lakes, NJ, USA).

human monocytes (THP1) = assay: as above; format: cell-based; settings: 30 min, 37°C, 6-FAM MFI, n = 3 replicates
Procedure: as §1, §2

[2] = test system: primary human cardiac fibroblasts; assay: as above; format: cell-based; settings: outgrowth culture, patient with terminal heart failure, 30 min, 37°C, 6-FAM MFI, n = 2 replicates
Procedure: as §1, §2

## Ac-KLMLPRPGGGKC-NH2 [EP9, 7-amino acid peptide KLMLPRP with glycine spacer GGGK(FAM)C, from phage display on rat EpiSC]
[1]
  binding affinity to rat EpiSC: high binding affinity; also recorded: highest affinity and specificity
Mouse EpiSC
  binding to cultured mouse EpiSC: superior binding
Human monocytes (THP1)
  binding to human monocytes (THP1): no discernible binding; also recorded: only negligible binding
[2]
  binding to primary human cardiac fibroblasts: high binding
